{
  "source": "patent US11713470B2",
  "about": "“Targeted gene therapies for pain and other neuro-related disorders” (University of Pittsburgh—Of the Commonwealth System of …, priority 2017, dated 2023)",
  "assay_type_in_all_cases": "in vivo, mouse",
  "key": {"[1]": {"biological_target": "T1, PSAM-GlyR in calretinin neurons in the dorsal horn lamina II (Homo sapiens, UniProt P23415+P36544, L141F)", "T1 construct": "plasmid from Addgene (Sternson); host or cells: mouse dorsal horn neurons transduced with Cre-dependent AAV2/8 (Tlx3^Cre, CCK^Cre or Calr^Cre mice)", "T1 sequence (P36544+P23415 fused P36544:L141F)": "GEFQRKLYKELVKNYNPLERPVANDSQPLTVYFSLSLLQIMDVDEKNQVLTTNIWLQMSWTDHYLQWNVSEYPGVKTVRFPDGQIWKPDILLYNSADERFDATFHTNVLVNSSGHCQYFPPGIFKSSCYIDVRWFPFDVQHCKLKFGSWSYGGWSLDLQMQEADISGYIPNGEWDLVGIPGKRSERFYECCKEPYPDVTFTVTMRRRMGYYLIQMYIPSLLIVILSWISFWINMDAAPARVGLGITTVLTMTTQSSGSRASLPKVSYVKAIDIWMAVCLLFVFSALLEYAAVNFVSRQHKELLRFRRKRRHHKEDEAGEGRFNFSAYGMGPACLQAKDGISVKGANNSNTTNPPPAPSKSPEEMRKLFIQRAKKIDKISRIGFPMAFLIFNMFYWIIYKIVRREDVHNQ", "details": "Calr^Cre mice with PSAM-GlyR, 30 mg/kg i.p.", "source_text": "(§1) Methods. Animals: All animals were kept on a standard 12:12 light/dark cycle in micro-isolator caging racks (Allentown Caging) with food and water provided ad libitum. Mouse strains obtained from Jackson Laboratories include C57Bl/6J (JAX #000664), Calr^Cre (JAX #010774) and CCK^Cre (JAX #012706). Adeno-associated viruses (AAV2/8) used in these experiments: hSyn-Flex-rev-PSAM^L141F-GlyR-IRES-eGFP (7^12 vg/ml) and hSyn-Flex-rev-PSAM^L141F,Y115F-GlyR-IRES-eGFP (1.7^13 vg/ml) were custom made by UNC Vector core based on plasmid material developed by Scott Sternson and provided by Addgene. The hSyn-Flex-rev-PSAM^L141F-GlyR-IRES-eGFP (7^12 vg/ml) was used in all experiments except FIG. 8 (e,f). For these experiments, hSyn-Flex-rev-PSAM^L141F,Y115F-GlyR-IRES-eGFP (1.7^13 vg/ml) was used. Methods including: intra-spinal virus injections, paw withdrawal threshold to von Frey filaments, to cotton swab, Hargreaves, pinprick and acute pain behaviors licking, guarding, flicking are all as previously described (Peirs, C. et al. Dorsal Horn Circuits for Persistent Mechanical Pain. Neuron 87, 797-812 (2015); Seal, R. P. et al. Injury-induced mechanical hypersensitivity requires C-low threshold mechanoreceptors. Nature 462, 651-655, (2009)); For paw withdrawal threshold to pressure: mice were lightly restrained by hand such that their rear legs were allowed to freely hang. Using a Pressure Application Measurement device (Ugo Basile) the hind paw was grasped between the experimenter's forefinger and thumb (with pressure transducer on the thumb), and force was slowly applied to the paw until the mouse struggled or flicked its limb (paw withdrawal threshold, PWT). The final force in grams was recorded. Each mouse was tested on the left and right paw for three trials with a ten-minute inter-trial interval between applications, and the three results averaged for each paw. Injury Models including incision, complete Freund's adjuvant, spared nerve injury tibial and sural models, carrageenan, methylglyoxal and multi-dose streptozotocin are as previously described (Peirs, C. et al. Dorsal Horn Circuits for Persistent Mechanical Pain. Neuron 87, 797-812 (2015); Seal, R. P. et al. Injury-induced mechanical hypersensitivity requires C-low threshold mechanoreceptors. Nature 462, 651-655, (2009); Decosterd, I. and Woolf, C. J. Spared nerve injury: an animal model of persistent peripheral neuropathic pain. Pain 87, 149-158 (2000); Bierhaus, A. et al. Methylglyoxal modification of Nav1.8 facilitates nociceptive neuron firing and causes hyperalgesia in diabetic neuropathy. Nat Med 18, 926-933 (2012); Cavanaugh, D. J. et al. Distinct subsets of unmyelinated primary sensory fibers mediate behavioral responses to noxious thermal and mechanical stimuli. Proc Natl Acad Sci USA 106, 9075-9080, (2009)). Chemogenetic Activation of PSAM-GlyR Receptor: Behavior thresholds were performed as described above in AAV8-hSyn-DIO-PSAM-GlyR-IRES-GFP injected mice. PSEM^89S at 30 mg/kg was injected intraperitoneally 15 minutes prior to testing. Immunohistochemistry was performed as previously described (Peirs, C. et al. Dorsal Horn Circuits for Persistent Mechanical Pain. Neuron 87, 797-812 (2015); Seal, R. P. et al. Injury-induced mechanical hypersensitivity requires C-low threshold mechanoreceptors. Nature 462, 651-655 (2009)). α-bungarotoxin conjugated to Alexa-647 (1:1000; ThermoFisher B35450), α-bungarotoxin conjugated to Alexa-488 (1:1000; ThermoFisher B13422). Imaging: Spinal cord sections were imaged with a confocal laser-scanning microscope (Nikon A1R) and Nikon Elements software using 405-, 488-, 561- and 640 nm excitation laser light. In order to suppress emission crosstalk, the microscope was configured to perform all scanning in sequential mode. Z-series were scanned at 20× magnification with an oil immersion lens and a z-step of 5.0 μm. Quantification and Statistical Analysis: all data are reported as mean±SEM. For acute behaviors, a two-tailed Student's t-test was used. […]"}, "[2]": {"biological_target": "T2, PSAM-GlyR in CCK^+ dorsal horn neurons (Homo sapiens, UniProt P23415+P36544, L141F)", "T2 construct": "plasmid from Addgene (Sternson); host or cells: mouse dorsal horn neurons transduced with Cre-dependent AAV2/8 (Tlx3^Cre, CCK^Cre or Calr^Cre mice)", "T2 sequence (P36544+P23415 fused P36544:L141F)": "as above", "details": "CCK^Cre mice with PSAM-GlyR", "source_text": "as §1"}, "[3]": {"biological_target": "T1, PSAM-GlyR in calretinin neurons in the dorsal horn lamina II", "assay": "Inflammatory pain models in Calr^Cre mice expressing PSAM-GlyR in the dorsal horn", "details": "30 mg/kg i.p.", "source_text": "as §1, with “Nat Med 18, 926-933 (2012); Cavanaugh, D. J. et al. Distinct subsets of unmyelinated primary sensory fibers mediate behavioral responses to noxious thermal and mechanical stimuli. Proc Natl Acad Sci USA 106, 9075-9080, (2009)). Chemogenetic Activation of PSAM-GlyR Receptor: Behavior thresholds were performed as described above in AAV8-hSyn-DIO-PSAM-GlyR-IRES-GFP injected mice. PSEM^89S at 30 mg/kg was injected intraperitoneally 15 minutes prior to testing. Immunohistochemistry was performed as previously described (Peirs, C. et al. Dorsal Horn Circuits for Persistent Mechanical Pain. Neuron 87, 797-812 (2015); Seal, R. P. et al. Injury-induced mechanical hypersensitivity requires C-low threshold mechanoreceptors. Nature 462, 651-655 (2009)). α-bungarotoxin conjugated to Alexa-647 (1:1000; ThermoFisher B35450), α-bungarotoxin conjugated to Alexa-488 (1:1000; ThermoFisher B13422). Imaging: Spinal cord sections were imaged with a confocal laser-scanning microscope (Nikon A1R) and Nikon Elements software using 405-, 488-, 561- and 640 nm excitation laser light. In order to suppress emission crosstalk, the microscope was configured to perform all scanning in sequential mode. Z-series were scanned at 20× magnification with an oil immersion lens and a z-step of 5.0 μm.” left out, “mean±SEM.” for “mean±SEM. For acute behaviors, a two-tailed Student's t-test was used.”"}, "[4]": {"biological_target": "T3, PSAM-GlyR in CCK^+ dorsal horn neurons (Homo sapiens, UniProt P23415+P36544, L141F/Y115F)", "T3 construct": "plasmid from Addgene (Sternson); host or cells: mouse dorsal horn neurons transduced with Cre-dependent AAV2/8 (Tlx3^Cre, CCK^Cre or Calr^Cre mice)", "T3 sequence (P36544+P23415 fused P36544:Y115F/P36544:L141F)": "as the sequence (P36544+P23415 fused P36544:L141F) above, with Y93F counted along it", "assay": "Persistent pain models in mice expressing PSAM-GlyR in CCK^+ dorsal horn neurons", "details": "PSAM^L141F,Y115F-GlyR virus, CCK^+ neurons", "source_text": "as §1"}, "[5]": {"biological_target": "T2, PSAM-GlyR in CCK^+ dorsal horn neurons", "assay": "Persistent pain models in mice expressing PSAM-GlyR in CCK^+ dorsal horn neurons", "details": "30 mg/kg i.p., PSAM-GlyR in CCK^+ neurons", "source_text": "as §1"}},
  "note": "“Also recorded” adds a separate entry of the source.",
  "data": [
    {"smiles": "COc1ccc(OC)c(C(=O)NC2CN3CCC2CC3)c1", "note": "(stereo not drawn) [PSEM^89S]", "values": [
      {"measurement": "baseline ipsilateral von Frey threshold", "setting": "[1]; p=0.3988", "value": "no effect"},
      {"measurement": "baseline Hargreaves latencies", "setting": "[1]; p=0.6125", "value": "unchanged"},
      {"measurement": "baseline pinprick", "setting": "[1]; p=0.7689", "value": "no effect"},
      {"measurement": "baseline response to cotton swab", "setting": "[1]; p=0.7963", "value": "no effect"},
      {"measurement": "baseline pressure with calibrated calipers", "setting": "[1]; p=0.8350", "value": "no effect"},
      {"measurement": "baseline sticky tape", "setting": "[1]; p=0.9346", "value": "no effect"},
      {"measurement": "performance on the rotarod", "setting": "[2]", "value": "not altered"},
      {"measurement": "baseline von Frey threshold", "setting": "[2]; 30 mg/kg i.p., p=0.2192", "value": "no effect"},
      {"measurement": "baseline pinprick", "setting": "[2]; p=0.5983", "value": "no effect"},
      {"measurement": "baseline response to cotton swab", "setting": "[2]; p=0.7293", "value": "no effect"},
      {"measurement": "baseline pressure with calibrated calipers", "setting": "[2]; p=0.7450", "value": "no effect"},
      {"measurement": "baseline Hargreaves latencies", "setting": "[2]; p=0.9746", "value": "unchanged"},
      {"measurement": "mechanical allodynia (punctate), carrageenan model", "setting": "[3]; 24 hours after carrageenan, p=0.0074", "value": "reverses; also recorded: significantly reversed"},
      {"measurement": "mechanical allodynia (punctate), CFA model", "setting": "[3]; 5 days after CFA, ipsilateral hindpaw, p=0.0026", "value": "reverses; also recorded: complete reversal"},
      {"measurement": "dynamic mechanical allodynia, incision model", "setting": "[3]; p=0.0001", "value": "reverses"},
      {"measurement": "punctate mechanical allodynia, incision model", "setting": "[3]; p=0.0028", "value": "reverses"},
      {"measurement": "heat hypersensitivity induced by multi-dose STZ", "setting": "[4]; p=0.010", "value": "reversed"},
      {"measurement": "heat hypersensitivity induced by MG (methylglyoxal)", "setting": "[4]; p=0.0272", "value": "reversed"},
      {"measurement": "dynamic allodynia, carrageenan pain model", "setting": "[5]; p=0.0001", "value": "significantly reversed"},
      {"measurement": "dynamic allodynia, sural-SNI model", "setting": "[5]; p=0.0001", "value": "significantly reversed"},
      {"measurement": "heat hypersensitivity, carrageenan pain model", "setting": "[5]; p=0.0002", "value": "significantly reversed"},
      {"measurement": "punctate allodynia, sural-SNI model", "setting": "[5]; p=0.0003", "value": "significantly reversed"},
      {"measurement": "dynamic allodynia, CFA model", "setting": "[5]; p=0.0016", "value": "markedly reversed; also recorded: significantly reversed"},
      {"measurement": "punctate allodynia, carrageenan pain model", "setting": "[5]; p=0.0017", "value": "significantly reversed"},
      {"measurement": "punctate allodynia, CFA model", "setting": "[5]; p=0.0034", "value": "markedly reversed; also recorded: significantly reversed"},
      {"measurement": "punctate allodynia, tibial-SNI model", "setting": "[5]; p=0.0054", "value": "markedly reversed"},
      {"measurement": "heat hypersensitivity, CFA model", "setting": "[5]; p=0.0368", "value": "markedly reversed; also recorded: significantly reversed"}
    ]}
  ]
}
